The test system of the assay is CCI-rats (chronic constriction injury of the sciatic nerve); tactile allodynia in ipsilateral hindpaw, antinociception in contralateral hindpaw. The arrangement: species or system Sprague-Dawley rats. To be noted: rat, in vivo.

The structures appear in SMILES notation.

With `CN1CC[C@]23c4c5ccc(O)c4O[C@H]2[C@@H](O)C=C[C@H]3[C@H]1C5.Cl` [Morphine, Morphine hydrochloride, reference compound], the ED10 stood at 0.7 nmol; the ED20 is given as 3.5 nmol; the “time of peak antiallodynic and antinociceptive responses post-dosing” value lay in the range of 0.5 to 0.75 h. The “dose-response at high i.t. doses” value (hydrochloride) is listed as “pronounced sub-maximal ‘ceiling’ effect”.

(Values after US8188048B2 (priority 2006, dated 2012).)
